Read-outs that look alike come from different tables or passages of the source. Positions of bridges follow the written chain, without caps; N, C: chain ends. Non-standard residues stand in square brackets, D forms with d. Residues, ends and D or L forms follow the SMILES beside them. *: point of attachment. Trp(1-CH2COOH) = N[C@@H](Cc1cn(CC(=O)O)c2ccccc12)C(=O)O; Nle(6-morpholino) = N[C@@H](CCCCN1CCOCC1)C(=O)O; Phe(3-COOH) = N[C@@H](Cc1cccc(C(=O)O)c1)C(=O)O; Trp(7-aza) = N[C@@H](Cc1c[nH]c2ncccc12)C(=O)O; NMePhe(3-Cl) = CN[C@@H](Cc1cccc(Cl)c1)C(=O)O; NMeY = CN[C@@H](Cc1ccc(O)cc1)C(=O)O; PEG4 = NCCOCCOCCOCCOCCC(=O)O; Carboxymethyl = O=C(O)C*
Biological target: T1, human transferrin receptor (hTfR) (Homo sapiens, UniProt P02786)
T1 construct: made in house
Test: Evaluation of molecular interaction between transferrin receptor (hTfR) and peptide using surface plasmon resonance (SPR)
Assay type: binding
Settings: surface plasmon resonance
Summary of the method: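 SPR, single-cycle kinetics; hTfR dimer on NTA chip via Ni capture plus EDC/NHS coupling. Analyte peptide 100, 50, 25, 10, 5 nM. Running buffer: 10 mM HEPES pH 8.0, 150 mM NaCl, 0.05% Tween 20, 0.1% BSA, 1.0% DMSO. KD by least-squares fit.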

[1] = binding to hTfR, KD class symbol, read-out: SPR (KD value)

T1 sequence (P02786 89-760 limits assumed): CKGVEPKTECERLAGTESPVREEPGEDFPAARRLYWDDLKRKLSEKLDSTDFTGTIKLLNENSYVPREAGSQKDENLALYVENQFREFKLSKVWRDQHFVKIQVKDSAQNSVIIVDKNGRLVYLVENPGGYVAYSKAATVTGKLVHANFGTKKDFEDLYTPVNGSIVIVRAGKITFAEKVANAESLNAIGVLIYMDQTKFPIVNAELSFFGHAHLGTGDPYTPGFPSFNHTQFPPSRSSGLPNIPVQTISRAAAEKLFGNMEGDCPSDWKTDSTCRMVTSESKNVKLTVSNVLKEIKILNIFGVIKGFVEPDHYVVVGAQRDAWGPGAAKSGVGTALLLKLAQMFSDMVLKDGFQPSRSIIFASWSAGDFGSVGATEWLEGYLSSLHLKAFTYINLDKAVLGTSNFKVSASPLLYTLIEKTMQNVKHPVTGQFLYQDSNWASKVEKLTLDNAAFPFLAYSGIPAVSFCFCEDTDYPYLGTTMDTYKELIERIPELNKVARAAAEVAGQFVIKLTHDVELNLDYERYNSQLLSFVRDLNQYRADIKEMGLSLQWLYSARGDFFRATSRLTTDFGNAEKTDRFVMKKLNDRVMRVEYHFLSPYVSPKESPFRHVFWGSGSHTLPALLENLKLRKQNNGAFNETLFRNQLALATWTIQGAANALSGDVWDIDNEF

Row | Compound | Kd [1] | Kd (peptide with linker, read-out: SPR (KD class for binding to hTfR))
1 | CC[C@H](C)[C@@H]1NC(=O)[C@H](Cc2ccc(OCC(=O)O)cc2)NC(=O)[C@H](Cc2ccc(O)cc2)NC(=O)[C@H](CC(N)=O)NC(=O)[C@H](Cc2c[nH]c3ncccc23)NC(=O)[C@H](C(C)C)NC(=O)[C@H](Cc2cccc(Cl)c2)N(C)C(=O)[C@H](C(C)C)NC(=O)[C@H](C)NC(=O)CSC[C@@H](C(=O)NCCOCCOCCOCCOCCC(N)=O)NC(=O)[C@H](Cc2cccc(C(=O)NCCOCCOCCOCCOC)c2)N(C)C(=O)[C@H](Cc2cccc(C(=O)NCCOCCOCCOCCOC)c2)NC(=O)[C@H](CCCNC(=N)N)NC(=O)[C@H](CCC(N)=O)NC(=O)[C@H]([C@@H](C)CC)NC1=O [compound 132] | 1 to 100 nM | –
2 | CC[C@H](C)[C@@H]1NC(=O)[C@H](Cc2ccc(OCC(=O)O)cc2)NC(=O)[C@H](Cc2ccc(O)cc2)NC(=O)[C@H](CC(N)=O)NC(=O)[C@H](Cc2cn(CC(=O)O)c3ccccc23)NC(=O)[C@H](C(C)C)NC(=O)[C@H](Cc2cccc(Cl)c2)N(C)C(=O)[C@H](C(C)C)NC(=O)[C@H](C)NC(=O)CSC[C@@H](C(=O)NCCOCCOCCOCCOCCC(N)=O)NC(=O)[C@H](Cc2ccc(O)cc2)N(C)C(=O)[C@H](Cc2ccncc2)NC(=O)[C@H](CCCCN2CCOCC2)NC(=O)[C@H](CCC(N)=O)NC(=O)[C@H]([C@@H](C)CC)NC1=O [compound 135] | 1 to 100 nM | –
3 | CC[C@H](C)[C@@H]1NC(=O)[C@H](Cc2ccc(OCC(=O)O)cc2)NC(=O)[C@H](Cc2ccc(O)cc2)NC(=O)[C@H](CC(N)=O)NC(=O)[C@H](Cc2c[nH]c3ncccc23)NC(=O)[C@H](C(C)C)NC(=O)[C@H](Cc2cccc(Cl)c2)N(C)C(=O)[C@H](C(C)C)NC(=O)[C@H](C)NC(=O)CSC[C@@H](C(=O)NCCOCCOCCOCCOCCC(N)=O)NC(=O)[C@H](Cc2ccc(O)cc2)N(C)C(=O)[C@H](Cc2ccncc2)NC(=O)[C@H](CCCCN2CCOCC2)NC(=O)[C@H](CCC(N)=O)NC(=O)[C@H]([C@@H](C)CC)NC1=O [compound 138] | 1 to 100 nM | –
4 | CC[C@H](C)[C@@H]1NC(=O)[C@H](Cc2ccc(OCC(=O)O)cc2)NC(=O)[C@H](Cc2ccc(O)cc2)NC(=O)[C@H](CC(N)=O)NC(=O)[C@H](Cc2c[nH]c3ncccc23)NC(=O)[C@H](C(C)C)NC(=O)[C@H](Cc2cccc(Cl)c2)N(C)C(=O)[C@H](C(C)C)NC(=O)[C@H](C)NC(=O)CSC[C@@H](C(=O)NCCOCCOCCOCCOCCC(N)=O)NC(=O)[C@H](Cc2ccc(O)cc2)N(C)C(=O)[C@H](Cc2cccc(C(=O)O)c2)NC(=O)[C@H](CCCCN2CCOCC2)NC(=O)[C@H](CCC(N)=O)NC(=O)[C@H]([C@@H](C)CC)NC1=O [compound 140] ({CH2CO}-AV[NMePhe(3-Cl)]V[Trp(7-aza)]NYY(Carboxymethyl)IIQ[Nle(6-morpholino)][Phe(3-COOH)][NMeY]C[PEG4]-NH2; thioether N-15) | 1 to 100 nM | –
5 | CC[C@H](C)[C@@H]1NC(=O)[C@H](Cc2ccc(OCC(=O)O)cc2)NC(=O)[C@H](Cc2ccc(O)cc2)NC(=O)[C@H](CC(N)=O)NC(=O)[C@H](Cc2cn(CC(=O)O)c3ccccc23)NC(=O)[C@H](C(C)C)NC(=O)[C@H](Cc2cccc(Cl)c2)N(C)C(=O)[C@H](C(C)C)NC(=O)[C@H](C)NC(=O)CSC[C@@H](C(=O)NCCOCCOCCOCCOCCC(N)=O)NC(=O)[C@H](Cc2ccc(O)cc2)N(C)C(=O)[C@H](Cc2cccc(C(=O)O)c2)NC(=O)[C@H](CCCCN2CCOCC2)NC(=O)[C@H](CCC(N)=O)NC(=O)[C@H]([C@@H](C)CC)NC1=O [compound 216] ({CH2CO}-AV[NMePhe(3-Cl)]V[Trp(1-CH2COOH)]NYY(Carboxymethyl)IIQ[Nle(6-morpholino)][Phe(3-COOH)][NMeY]C[PEG4]-NH2; thioether N-15) | – | 1 to 100 nM

Now from value to molecule:

Row | Kd [1] | Kd (peptide with linker, read-out: SPR (KD class for binding to hTfR)) | Compound
6 | 1 to 100 nM | – | CC[C@H](C)[C@@H]1NC(=O)[C@H](Cc2ccc(OCC(=O)O)cc2)NC(=O)[C@H](Cc2ccc(O)cc2)NC(=O)[C@H](CC(N)=O)NC(=O)[C@H](Cc2c[nH]c3ncccc23)NC(=O)[C@H](C(C)C)NC(=O)[C@H](Cc2cccc(Cl)c2)N(C)C(=O)[C@H](C(C)C)NC(=O)[C@H](C)NC(=O)CSC[C@@H](C(=O)NCCOCCOCCOCCOCCC(N)=O)NC(=O)[C@H](Cc2ccc(O)cc2)N(C)C(=O)[C@H](Cc2ccccc2)NC(=O)[C@H](CCCNC(=N)N)NC(=O)[C@H](CCC(=O)NCCOCCOCCOCCOC)NC(=O)[C@H]([C@@H](C)CC)NC1=O [compound 133]
7 | 1 to 100 nM | – | CC[C@H](C)[C@@H]1NC(=O)[C@H](Cc2ccc(OCC(=O)O)cc2)NC(=O)[C@H](Cc2ccc(O)cc2)NC(=O)[C@H](CC(N)=O)NC(=O)[C@H](Cc2cn(CC(=O)O)c3ccccc23)NC(=O)[C@H](C(C)C)NC(=O)[C@H](Cc2cccc(Cl)c2)N(C)C(=O)[C@H](C(C)C)NC(=O)[C@H](C)NC(=O)CSC[C@@H](C(=O)NCCOCCOCCOCCOCCC(N)=O)NC(=O)[C@H](Cc2ccc(O)cc2)N(C)C(=O)[C@H](Cc2ccncc2)NC(=O)[C@H](CCCNC(=N)N)NC(=O)[C@H](CCC(N)=O)NC(=O)[C@H]([C@@H](C)CC)NC1=O [compound 134]
8 | 1 to 100 nM | – | CC[C@H](C)[C@@H]1NC(=O)[C@H](Cc2ccc(OCC(=O)O)cc2)NC(=O)[C@H](Cc2ccc(O)cc2)NC(=O)[C@H](CC(N)=O)NC(=O)[C@H](Cc2cn(CC(=O)O)c3ccccc23)NC(=O)[C@H](C(C)C)NC(=O)[C@H](Cc2cccc(Cl)c2)N(C)C(=O)[C@H](C(C)C)NC(=O)[C@H](C)NC(=O)CSC[C@@H](C(=O)NCCOCCOCCOCCOCCC(N)=O)NC(=O)[C@H](Cc2ccc(O)cc2)N(C)C(=O)[C@H](Cc2cccc(C(=O)O)c2)NC(=O)[C@H](CCCNC(=N)N)NC(=O)[C@H](CCC(N)=O)NC(=O)[C@H]([C@@H](C)CC)NC1=O [compound 136]
9 | 1 to 100 nM | – | CC[C@H](C)[C@@H]1NC(=O)[C@H](Cc2ccc(OCC(=O)O)cc2)NC(=O)[C@H](Cc2ccc(O)cc2)NC(=O)[C@H](CC(N)=O)NC(=O)[C@H](Cc2c[nH]c3ncccc23)NC(=O)[C@H](C(C)C)NC(=O)[C@H](Cc2cccc(Cl)c2)N(C)C(=O)[C@H](C(C)C)NC(=O)[C@H](C)NC(=O)CSC[C@@H](C(=O)NCCOCCOCCOCCOCCC(N)=O)NC(=O)[C@H](Cc2ccc(O)cc2)N(C)C(=O)[C@H](Cc2ccncc2)NC(=O)[C@H](CCCNC(=N)N)NC(=O)[C@H](CCC(N)=O)NC(=O)[C@H]([C@@H](C)CC)NC1=O [compound 137]
10 | 1 to 100 nM | – | CC[C@H](C)[C@@H]1NC(=O)[C@H](Cc2ccc(OCC(=O)O)cc2)NC(=O)[C@H](Cc2ccc(O)cc2)NC(=O)[C@H](CC(N)=O)NC(=O)[C@H](Cc2c[nH]c3ncccc23)NC(=O)[C@H](C(C)C)NC(=O)[C@H](Cc2cccc(Cl)c2)N(C)C(=O)[C@H](C(C)C)NC(=O)[C@H](C)NC(=O)CSC[C@@H](C(=O)NCCOCCOCCOCCOCCC(N)=O)NC(=O)[C@H](Cc2ccc(O)cc2)N(C)C(=O)[C@H](Cc2ccncc2)NC(=O)[C@H](CCCCN2CCOCC2)NC(=O)[C@H](CCC(=O)NCCOCCOCCOCCOCCOCCOCCOCCOC)NC(=O)[C@H]([C@@H](C)CC)NC1=O [compound 139]
11 | 100 to 1000 nM | – | CC[C@H](C)[C@@H]1NC(=O)[C@H](Cc2ccc(OCC(=O)O)cc2)NC(=O)[C@H](Cc2ccc(N)nc2)NC(=O)[C@H](CC(N)=O)NC(=O)[C@H](Cc2c[nH]c3ccccc23)NC(=O)[C@H](C(C)C)NC(=O)[C@H](Cc2cccc(Cl)c2)N(C)C(=O)[C@H](C(C)C)NC(=O)[C@H](C)NC(=O)CSC[C@@H](C(=O)NCCOCCOCCOCCOCCC(N)=O)NC(=O)[C@H](Cc2ccc(O)cc2)N(C)C(=O)[C@H](Cc2ccncc2)NC(=O)[C@H](CCCNC(=N)N)NC(=O)[C@H](CCC(=O)NCCOCCOCCOCCOCCOCCOCCOCCOC)NC(=O)[C@H]([C@@H](C)CC)NC1=O [compound 141]

— patent publication US20260116920A1, “HUMAN TRANSFERRIN RECEPTOR BINDING PEPTIDE” (PEPTIDREAM INC., priority 2021, published 2026)
